Data reported in patent publication US8883827B2, “Azole derivatives as WTN pathway inhibitors” (Oslo University Hospital HF, priority 2009, dated 2014).

Columns and labels:
[1] = molecular target: T1, EphB4(h) (Homo sapiens, UniProt P54760); assay: Kinase screen; assay type: biochemical; settings: 0.1% DMSO control = 100%
T1 construct: purchased Millipore (KinaseProfiler service)

[2] = molecular target: T2, Rse(h) (Homo sapiens, UniProt Q06418); assay: Kinase screen; assay type: biochemical; settings: 0.1% DMSO control = 100%
T2 construct: purchased Millipore (KinaseProfiler service)
T2 sequence (Q06418 41-890): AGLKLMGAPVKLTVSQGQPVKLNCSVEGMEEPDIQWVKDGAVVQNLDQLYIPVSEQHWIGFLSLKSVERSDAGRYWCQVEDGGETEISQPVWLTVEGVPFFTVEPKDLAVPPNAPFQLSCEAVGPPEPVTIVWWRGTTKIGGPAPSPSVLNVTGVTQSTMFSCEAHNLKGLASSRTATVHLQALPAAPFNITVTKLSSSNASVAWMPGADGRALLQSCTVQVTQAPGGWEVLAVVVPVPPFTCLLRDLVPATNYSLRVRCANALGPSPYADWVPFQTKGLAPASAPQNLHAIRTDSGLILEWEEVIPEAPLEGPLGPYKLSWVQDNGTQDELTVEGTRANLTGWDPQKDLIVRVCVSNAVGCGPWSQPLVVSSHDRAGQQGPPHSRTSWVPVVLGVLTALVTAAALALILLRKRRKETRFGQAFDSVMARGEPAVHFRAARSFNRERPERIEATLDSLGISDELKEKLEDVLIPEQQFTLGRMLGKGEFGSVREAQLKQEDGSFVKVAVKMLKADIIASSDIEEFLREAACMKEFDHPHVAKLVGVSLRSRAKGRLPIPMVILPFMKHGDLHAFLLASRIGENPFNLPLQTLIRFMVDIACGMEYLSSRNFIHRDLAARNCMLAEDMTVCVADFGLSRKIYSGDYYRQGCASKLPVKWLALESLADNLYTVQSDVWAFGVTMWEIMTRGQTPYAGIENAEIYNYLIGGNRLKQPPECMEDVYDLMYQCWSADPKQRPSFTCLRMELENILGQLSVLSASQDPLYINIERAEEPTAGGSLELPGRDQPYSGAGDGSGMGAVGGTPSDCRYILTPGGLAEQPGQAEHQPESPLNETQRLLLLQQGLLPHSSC

[3] = molecular target: T3, MAPKAP-K2(h) (Homo sapiens, UniProt P49137); assay: Kinase screen; assay type: biochemical; settings: 0.1% DMSO control = 100%
T3 construct: purchased Millipore (KinaseProfiler service)

[4] = test system: Wnt signaling pathway in SW480 cells; assay: ST-d1EGFP reporter in SW480 cells (flow cytometry); assay type: cell-based; settings: 25 µM compound, 72 h
Description: 3) the SW480 colorectal cell line, which has an aberrant Wnt activity caused by spontaneous mutations in the APC locus, transfected with the construct ST-d1EGFP. In this cell line, d1EGFP reporter is activated without using Wnt-3a CM, i.e. the cell line has permanently “switched on” Wnt signaling pathway.
100000 ST-d1EGFP SW480 and SW480 CMV-d1EGFP (Clontech) SW480 cells were plated on 12-well plates and 1, 10 or 25 μM of compound No. 1 (or 0.01%, 0.1% or 0.25% DMSO—controls) was added to the cells the following day. After a 72 hour incubation, samples were trypsinized and analysed for d1EGFP expression on a PAS-PPCS flowcytometer and cell sorter (Partec).

[5] = molecular target: T4, PRAK(h) (Homo sapiens, UniProt Q8IW41); assay: Kinase screen; assay type: biochemical; settings: 0.1% DMSO control = 100%
T4 construct: purchased Millipore (KinaseProfiler service)

[6] = molecular target: T5, PI3 Kinase (p110b/p85a)(h) (Homo sapiens, UniProt P42338); assay: Kinase screen; assay type: biochemical; settings: 0.1% DMSO control = 100%
T5 construct: purchased Millipore (KinaseProfiler service)

[7] = molecular target: T6, CK1γ1(h) (Homo sapiens, UniProt Q9HCP0); assay: Kinase screen; assay type: biochemical; settings: 0.1% DMSO control = 100%
T6 construct: purchased Millipore (KinaseProfiler service)
T6 sequence (Q9HCP0 whole entry): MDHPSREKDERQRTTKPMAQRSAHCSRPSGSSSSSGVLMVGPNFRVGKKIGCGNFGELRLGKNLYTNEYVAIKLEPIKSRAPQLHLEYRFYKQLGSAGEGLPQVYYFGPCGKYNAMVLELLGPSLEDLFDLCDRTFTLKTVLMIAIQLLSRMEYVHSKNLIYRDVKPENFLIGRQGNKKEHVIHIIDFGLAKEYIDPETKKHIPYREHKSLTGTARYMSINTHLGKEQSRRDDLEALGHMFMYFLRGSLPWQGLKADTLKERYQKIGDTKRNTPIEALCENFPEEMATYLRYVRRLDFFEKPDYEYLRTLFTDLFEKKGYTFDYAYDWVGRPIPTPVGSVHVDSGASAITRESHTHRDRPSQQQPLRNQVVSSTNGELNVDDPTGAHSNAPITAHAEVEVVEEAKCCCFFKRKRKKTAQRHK

[8] = molecular target: T7, ASK1(h) (Homo sapiens, UniProt Q99683); assay: Kinase screen; assay type: biochemical; settings: 0.1% DMSO control = 100%
T7 construct: purchased Millipore (KinaseProfiler service)

[9] = molecular target: T8, HePTP(h) (Homo sapiens, UniProt P35236); assay: Phosphatase screen; assay type: biochemical; settings: 0.1% DMSO control = 100%
T8 construct: purchased Millipore (KinaseProfiler service)
T8 sequence (P35236 whole entry): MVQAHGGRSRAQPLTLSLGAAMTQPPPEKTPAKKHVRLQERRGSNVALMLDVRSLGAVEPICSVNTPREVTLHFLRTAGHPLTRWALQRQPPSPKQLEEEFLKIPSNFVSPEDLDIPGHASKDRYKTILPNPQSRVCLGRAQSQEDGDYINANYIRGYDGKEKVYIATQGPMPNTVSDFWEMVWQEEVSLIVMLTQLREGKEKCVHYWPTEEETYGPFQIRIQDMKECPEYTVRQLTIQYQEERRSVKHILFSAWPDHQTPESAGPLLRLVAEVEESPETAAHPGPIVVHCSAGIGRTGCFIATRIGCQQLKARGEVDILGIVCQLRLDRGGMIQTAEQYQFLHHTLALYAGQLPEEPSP

[10] = molecular target: T9, LOK(h) (Homo sapiens, UniProt O94804); assay: Kinase screen; assay type: biochemical; settings: 0.1% DMSO control = 100%
T9 construct: purchased Millipore (KinaseProfiler service)
T9 sequence (O94804 whole entry): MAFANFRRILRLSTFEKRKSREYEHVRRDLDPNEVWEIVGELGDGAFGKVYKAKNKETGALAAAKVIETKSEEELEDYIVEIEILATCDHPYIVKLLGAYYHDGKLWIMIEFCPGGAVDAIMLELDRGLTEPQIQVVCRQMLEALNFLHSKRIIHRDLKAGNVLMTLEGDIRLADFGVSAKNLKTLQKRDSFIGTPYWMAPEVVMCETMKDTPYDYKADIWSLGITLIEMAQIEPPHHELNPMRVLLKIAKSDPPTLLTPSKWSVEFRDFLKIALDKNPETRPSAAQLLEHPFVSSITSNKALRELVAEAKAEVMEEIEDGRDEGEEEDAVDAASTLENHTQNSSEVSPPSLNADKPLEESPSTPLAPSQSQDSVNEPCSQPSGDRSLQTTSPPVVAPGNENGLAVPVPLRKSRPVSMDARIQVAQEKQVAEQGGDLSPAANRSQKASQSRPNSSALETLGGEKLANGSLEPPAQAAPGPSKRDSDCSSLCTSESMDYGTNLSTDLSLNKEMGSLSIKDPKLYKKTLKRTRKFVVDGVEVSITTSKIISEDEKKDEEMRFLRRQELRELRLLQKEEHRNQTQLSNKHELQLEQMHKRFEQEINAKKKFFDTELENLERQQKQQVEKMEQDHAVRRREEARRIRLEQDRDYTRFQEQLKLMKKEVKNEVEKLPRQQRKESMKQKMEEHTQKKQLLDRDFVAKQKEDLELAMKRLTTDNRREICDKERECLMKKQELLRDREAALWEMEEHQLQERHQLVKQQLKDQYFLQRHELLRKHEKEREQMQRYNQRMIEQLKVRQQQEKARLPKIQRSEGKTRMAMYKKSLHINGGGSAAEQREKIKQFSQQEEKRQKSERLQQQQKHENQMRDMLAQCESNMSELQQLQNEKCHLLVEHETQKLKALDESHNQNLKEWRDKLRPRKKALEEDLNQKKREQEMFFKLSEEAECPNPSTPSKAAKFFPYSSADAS

[11] = molecular target: T10, PTPN22(h) (Homo sapiens, UniProt Q9Y2R2); assay: Phosphatase screen; assay type: biochemical; settings: 0.1% DMSO control = 100%
T10 construct: purchased Millipore (KinaseProfiler service)

[12] = molecular target: T11, MEK1(h) (Homo sapiens, UniProt Q02750); assay: Kinase screen; assay type: biochemical; settings: 0.1% DMSO control = 100%
T11 construct: purchased Millipore (KinaseProfiler service)
T11 sequence (Q02750 whole entry): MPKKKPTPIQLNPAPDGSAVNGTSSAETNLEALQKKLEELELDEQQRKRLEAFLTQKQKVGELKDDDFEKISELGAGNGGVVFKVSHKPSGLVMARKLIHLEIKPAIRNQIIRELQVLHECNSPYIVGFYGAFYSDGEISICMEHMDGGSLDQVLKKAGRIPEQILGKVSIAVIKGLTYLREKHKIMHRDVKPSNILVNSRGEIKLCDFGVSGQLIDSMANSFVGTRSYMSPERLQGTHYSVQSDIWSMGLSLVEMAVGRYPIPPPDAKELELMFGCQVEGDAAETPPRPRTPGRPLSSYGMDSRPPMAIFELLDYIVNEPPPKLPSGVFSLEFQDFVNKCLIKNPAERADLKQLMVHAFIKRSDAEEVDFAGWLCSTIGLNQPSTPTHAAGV

[13] = molecular target: T12, TCPTP(h) (Homo sapiens, UniProt P17706); assay: Phosphatase screen; assay type: biochemical; settings: 0.1% DMSO control = 100%
T12 construct: purchased Millipore (KinaseProfiler service)
T12 sequence (P17706 whole entry): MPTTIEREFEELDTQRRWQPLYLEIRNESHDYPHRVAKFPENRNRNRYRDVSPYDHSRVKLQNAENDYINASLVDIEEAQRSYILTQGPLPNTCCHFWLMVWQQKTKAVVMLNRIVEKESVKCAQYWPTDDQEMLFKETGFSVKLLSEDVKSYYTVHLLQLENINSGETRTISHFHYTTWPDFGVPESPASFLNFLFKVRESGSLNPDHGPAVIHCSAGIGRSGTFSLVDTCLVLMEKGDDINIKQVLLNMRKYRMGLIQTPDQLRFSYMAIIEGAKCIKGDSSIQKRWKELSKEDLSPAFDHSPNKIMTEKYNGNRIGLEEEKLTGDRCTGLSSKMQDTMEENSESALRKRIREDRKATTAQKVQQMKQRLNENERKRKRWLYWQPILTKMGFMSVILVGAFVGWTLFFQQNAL

[14] = molecular target: T13, EphA5(h) (Homo sapiens, UniProt P54756); assay: Kinase screen; assay type: biochemical; settings: 0.1% DMSO control = 100%
T13 construct: purchased Millipore (KinaseProfiler service)

[15] = test system: β-catenin; assay: Western blot and immunocytochemistry of β-catenin in SW480 cells; assay type: cell-based
Description: The effect of compound No. 1 on the presence of β-catenin in the nucleus or in the cytoplasm of colorectal cancer SW480 cells was investigated. SW480 cells contain activating mutations in the APC gene, leading to elevated levels of nuclear β-catenin and aberrant canonical Wnt signaling. A Western blot analysis was carried out using cell lysates from compound-treated SW480 cells and an antibody against the active form of β-catenin (non-phosphorylated N-terminal—ABC). In parallel, antibodies were used against total β-catenin (β-catenin), or β-catenin phosphorylated at the N-terminal (-β-catenin) which detects a degradable form of β-catenin.
SW480 cells were seeded and treated with compound No. 1 as described in Example 25. Cell lysates were immunoblotted using monoclonal active-β-catenin (ABC—Millipore), monoclonal β-catenin (β-catenin—BD Transduction Laboratories™), phospho-β-catenin (pβ-catenin—Cell Signaling Technology) and actin (Sigma). Primary antibodies were visualized with secondary HRP conjugated antibodies (Santa Cruz Biotechnology) and enhanced chemiluminescent substrate (Pierce® ECL Western Blotting Substrate, Thermo Scientific).
For immunocytochemical experiments, SW480 cells were seeded and treated as described in Example 24. After 72 hours, cells were fixed in 4% PFA in PBS for 10 minutes. Immunostaining was performed as described in standard protocols. Primary antibody (monoclonal β-catenin, BD Transduction Laboratories™) and secondary antibody (Alexa Fluor® 594, Invitrogen) were diluted 1:1000. The samples were imaged by using a Zeiss Axiovert 200M Fluorescence/Live cell Imaging Microscope with X40 magnification and the same exposure times. Cells were stained with DAPI (4′,6-diamidino-2-phenylindole) according to standard protocols.

[16] = test system: PP2A(h); assay: Phosphatase screen; assay type: biochemical, human; settings: 10 μM; 0.1% DMSO control = 100%
[17] = molecular target: T14, c-RAF(h) (Homo sapiens, UniProt P04049); assay: Kinase screen; assay type: biochemical; settings: 0.1% DMSO control = 100%
T14 construct: purchased Millipore (KinaseProfiler service)

[18] = molecular target: T15, JAK2(h) (Homo sapiens, UniProt O60674); assay: Kinase screen; assay type: biochemical; settings: 0.1% DMSO control = 100%
T15 construct: purchased Millipore (KinaseProfiler service)

[19] = molecular target: T16, ALK(h) (Homo sapiens, UniProt Q9UM73); assay: Kinase screen; assay type: biochemical; settings: 0.1% DMSO control = 100%
T16 construct: purchased Millipore (KinaseProfiler service)

[20] = molecular target: T17, CDK9/cyclin T1(h) (Homo sapiens, UniProt P50750); assay: Kinase screen; assay type: biochemical; settings: 0.1% DMSO control = 100%
T17 construct: purchased Millipore (KinaseProfiler service)

[21] = molecular target: T18, PKG1α(h) (Homo sapiens, UniProt Q13976); assay: Kinase screen; assay type: biochemical; settings: 0.1% DMSO control = 100%
T18 construct: purchased Millipore (KinaseProfiler service)
T18 sequence (Q13976 whole entry): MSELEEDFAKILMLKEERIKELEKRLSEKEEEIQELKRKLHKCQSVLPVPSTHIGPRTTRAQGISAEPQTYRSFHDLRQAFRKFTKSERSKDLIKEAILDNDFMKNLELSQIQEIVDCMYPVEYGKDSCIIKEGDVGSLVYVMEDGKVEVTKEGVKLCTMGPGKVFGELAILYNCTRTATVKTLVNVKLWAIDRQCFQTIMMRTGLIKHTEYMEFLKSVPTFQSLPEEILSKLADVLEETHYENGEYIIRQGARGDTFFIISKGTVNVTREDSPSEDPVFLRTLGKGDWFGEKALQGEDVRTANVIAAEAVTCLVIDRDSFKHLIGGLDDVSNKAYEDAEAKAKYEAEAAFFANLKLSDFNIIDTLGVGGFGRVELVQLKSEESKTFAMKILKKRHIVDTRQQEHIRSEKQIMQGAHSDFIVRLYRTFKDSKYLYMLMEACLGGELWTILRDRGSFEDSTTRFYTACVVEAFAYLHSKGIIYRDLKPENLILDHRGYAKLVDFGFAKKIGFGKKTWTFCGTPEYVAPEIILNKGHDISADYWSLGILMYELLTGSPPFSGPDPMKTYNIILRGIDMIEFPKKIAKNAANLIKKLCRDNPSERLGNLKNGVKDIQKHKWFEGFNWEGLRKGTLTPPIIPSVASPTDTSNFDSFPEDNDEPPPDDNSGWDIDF

[22] = test system: Xenopus embryos; assay: Xenopus laevis axis duplication assay (XWnt8 mRNA); assay type: in vivo; settings: 0.4 pmol injected, scored after 36 h; compared to DMSO controls
Description: Injection of ectopic XWnt8 mRNA into the prospective ventral side activates canonical Wnt pathway signaling and induces a secondary body axis. This assay provides a reliable method to test biological effects of compounds with potential effects on Wnt signaling. […] The embryos were incubated at 19° C. and axis duplication was scored after 36 hours.

[23] = molecular target: T19, MSK2(h) (Homo sapiens, UniProt O75676); assay: Kinase screen; assay type: biochemical; settings: 0.1% DMSO control = 100%
T19 construct: purchased Millipore (KinaseProfiler service)
T19 sequence (O75676 whole entry): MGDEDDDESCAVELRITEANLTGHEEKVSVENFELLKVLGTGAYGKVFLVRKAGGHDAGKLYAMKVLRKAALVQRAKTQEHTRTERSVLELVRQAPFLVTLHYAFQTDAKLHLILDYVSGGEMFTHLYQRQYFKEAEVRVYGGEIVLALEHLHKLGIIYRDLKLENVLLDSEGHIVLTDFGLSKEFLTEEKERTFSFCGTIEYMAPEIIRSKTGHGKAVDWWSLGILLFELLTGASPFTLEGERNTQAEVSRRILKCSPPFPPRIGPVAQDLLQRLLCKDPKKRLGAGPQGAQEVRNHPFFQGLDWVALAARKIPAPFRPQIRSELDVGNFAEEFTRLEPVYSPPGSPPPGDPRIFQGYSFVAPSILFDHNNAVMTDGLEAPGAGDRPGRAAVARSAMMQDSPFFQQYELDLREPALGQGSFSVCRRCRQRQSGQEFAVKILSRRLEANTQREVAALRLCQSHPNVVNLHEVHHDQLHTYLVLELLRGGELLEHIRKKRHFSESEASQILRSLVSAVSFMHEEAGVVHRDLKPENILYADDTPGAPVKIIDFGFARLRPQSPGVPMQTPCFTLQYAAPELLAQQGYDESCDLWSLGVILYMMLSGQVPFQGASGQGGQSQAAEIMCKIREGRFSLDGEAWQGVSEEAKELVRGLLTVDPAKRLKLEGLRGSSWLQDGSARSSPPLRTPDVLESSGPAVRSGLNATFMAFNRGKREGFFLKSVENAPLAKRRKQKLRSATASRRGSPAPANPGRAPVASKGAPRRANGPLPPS

[24] = molecular target: T20, Abl(h) (Homo sapiens, UniProt P00519); assay: Kinase screen; assay type: biochemical; settings: 0.1% DMSO control = 100%
T20 construct: purchased Millipore (KinaseProfiler service)

[25] = molecular target: T21, CHK1(h) (Homo sapiens, UniProt O14757); assay: Kinase screen; assay type: biochemical; settings: 0.1% DMSO control = 100%
T21 construct: purchased Millipore (KinaseProfiler service)

[26] = molecular target: T22, ROCK-I(h) (Homo sapiens, UniProt Q13464); assay: Kinase screen; assay type: biochemical; settings: 0.1% DMSO control = 100%
T22 construct: purchased Millipore (KinaseProfiler service)

COc1ccc(-n2c(SCc3nc(-c4ccc(C)cc4)no3)nnc2-c2ccncc2)cc1 [Compound 1]
activity at 10 µM [1]: 105% | activity at 10 µM [2]: 108% | activity at 10 µM [3]: 85% | reduction of ratio of activity of ST-d1EGFP to CMV-d1EGFP [4]: 63.5% | activity at 10 µM [5]: 55% | activity at 10 µM [6]: 94% | activity at 10 µM [7]: 100% | activity at 10 µM [8]: 106% | activity at 10 µM [9]: 106% | activity at 10 µM [10]: 109% | activity at 10 µM [11]: 99% | activity at 10 µM [12]: 108% | activity at 10 µM [13]: 100% | activity at 10 µM [14]: 99% | active β-catenin (non-phosphorylated, ABC) in Western blot ([15]; SW480, 1 μM, 72 hours): barely detectable | overall levels of total β-catenin (Western blot) ([15]; SW480, 72-hour exposure): reduced | nuclear total β-catenin (immunofluorescence) ([15]; SW480, 72-hour incubation): Reduction | level of degradable pβ-catenin (Western blot) ([15]; SW480, 24 hours after adding compound): temporarily increased | active β-catenin (ABC) level (Western blot) ([15]; SW480, 72 h, all concentrations): even stronger reduction | Activity (%) [16]: 87% | activity at 10 µM [17]: 98% | activity at 10 µM [18]: 118% | activity at 10 µM [19]: 91% | activity at 10 µM [20]: 115% | activity at 10 µM [21]: 106% | reduction in double axis formation [22]: 87% | activity at 10 µM [23]: 108% | activity at 10 µM [24]: 93% | activity at 10 µM [25]: 106% | activity at 10 µM [26]: 100%
